What was measured:
Type in all cases: biochemical
Human cathepsin S = Human cathepsin S (Homo sapiens, UniProt P25774); assay: Cathepsin S Assay; conditions: apparent inhibition constant; substrate Z-Val-Val-Arg-AMC; pH 6.5
Procedure: (§1) Solutions of test compounds in varying concentrations were prepared in 10 μL of dimethyl sulfoxide (DMSO) and then diluted into assay buffer (40 μL, comprising: MES, 50 mM (pH 6.5); EDTA, 2.5 mM; and NaCl, 100 mM); β-mercaptoethanol, 2.5 mM; and BSA, 0.00%. Human cathepsin S (0.05 pMoles in 25 μL of assay buffer) was added to the dilutions. The assay solutions were mixed for 5-10 seconds on a shaker plate, covered and incubated for 30 min at room temperature. Z-Val-Val-Arg-AMC (4 nMoles in 25 μL of assay buffer containing 10% DMSO) was added to the assay solutions and hydrolysis was followed spectrophotometrically (at λ 460 nm) for 5 min. Apparent inhibition constants (Ki) were calculated from the enzyme progress curves using standard mathematical models.

Human cathepsin F = biological target: T1, Human cathepsin F (Homo sapiens, UniProt Q9UBX1); assay: Cathepsin F Assay; conditions: apparent inhibition constant; substrate Z-Phe-Arg-AMC; pH 6.5
T1 sequence (Q9UBX1 271-484): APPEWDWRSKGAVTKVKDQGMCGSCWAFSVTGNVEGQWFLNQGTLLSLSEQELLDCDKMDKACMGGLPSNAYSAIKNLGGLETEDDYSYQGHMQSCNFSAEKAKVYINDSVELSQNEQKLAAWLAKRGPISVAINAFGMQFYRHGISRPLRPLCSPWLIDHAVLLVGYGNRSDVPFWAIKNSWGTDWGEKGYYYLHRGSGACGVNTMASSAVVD
Procedure: as §1, with “DTT,” for “β-mercaptoethanol,”, “0.01%.” for “0.00%.”, “F (0.1” for “S (0.05”, “Z-Phe-Arg-AMC (2” for “Z-Val-Val-Arg-AMC (4”

Human cathepsin L = Human cathepsin L (Homo sapiens, UniProt P07711); assay: Cathepsin L Assay; conditions: apparent inhibition constant; substrate Z-Phe-Arg-AMC; pH 5.5
Sequence of Human cathepsin L (P07711 114-333): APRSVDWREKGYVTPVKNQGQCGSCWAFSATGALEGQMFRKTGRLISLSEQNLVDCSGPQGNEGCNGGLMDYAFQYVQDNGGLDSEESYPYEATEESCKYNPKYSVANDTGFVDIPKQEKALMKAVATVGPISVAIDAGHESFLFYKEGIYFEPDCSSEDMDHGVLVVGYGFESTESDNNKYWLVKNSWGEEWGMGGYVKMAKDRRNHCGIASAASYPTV
Procedure: (§2) Solutions of test compounds in varying concentrations were prepared in 10 μL of dimethyl sulfoxide (DMSO) and then diluted into assay buffer (40 μL, comprising: MES, 50 mM (pH 5.5); EDTA, 2.5 mM; and DTT, 2.5 mM). Human cathepsin L (0.05 pMoles in 25 μL of assay buffer) was added to the dilutions. The assay solutions were mixed for 5-10 seconds on a shaker plate, covered and incubated for 30 min at room temperature. Z-Phe-Arg-AMC (1 nMoles in 25 μL of assay buffer) was added to the assay solutions and hydrolysis was followed spectrophotometrically at (λ 460 nm) for 5 min. Apparent inhibition constants (Ki) were calculated from the enzyme progress curves using standard mathematical models.

Human cathepsin B = Human cathepsin B (Homo sapiens, UniProt P07858); assay: Cathepsin B Assay; conditions: apparent inhibition constant; substrate Z-FR-AMC; pH 6
Procedure: as §2, with “N,N-bis(2-hydroxyethyl)-2-aminoethanesulfonic acid (BES),” for “MES,”, “6); polyoxyethylenesorbitan monolaurate, 0.05%;” for “5.5); EDTA, 2.5 mM;”, “dithiothreitol (DTT),” for “DTT,”, “B (0.025” for “L (0.05”, “Z-FR-AMC (20” for “Z-Phe-Arg-AMC (1”

Sequence of Human cathepsin S (P25774 115-331): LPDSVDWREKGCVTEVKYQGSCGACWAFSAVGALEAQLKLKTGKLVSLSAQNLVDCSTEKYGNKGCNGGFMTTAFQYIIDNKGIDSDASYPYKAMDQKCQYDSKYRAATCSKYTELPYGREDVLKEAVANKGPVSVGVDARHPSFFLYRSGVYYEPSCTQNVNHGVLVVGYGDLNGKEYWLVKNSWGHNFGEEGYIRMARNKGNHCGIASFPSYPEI

| SMILES | Ki (Human cathepsin S) [nM] | Ki (Human cathepsin F) [nM] | Ki (Human cathepsin L) [nM] | Ki (Human cathepsin B) [nM] |
| --- | --- | --- | --- | --- |
| N#CC1(NC(=O)[C@H](CC(F)(F)CC2CC2)N[C@@H](c2ccc(F)cc2)C(F)(F)F)CC1 | < 20 | 21 to 500 | 21 to 500 | 21 to 500 |
| CCC(F)(F)C[C@H](N[C@@H](c1ccc(F)cc1)C(F)(F)F)C(=O)NC1(C#N)CC1 | < 20 | 21 to 500 | 21 to 500 | 21 to 500 |
| CCCC(F)(F)C[C@H](N[C@@H](c1ccc(F)cc1)C(F)(F)F)C(=O)NC1(C#N)CC1 | < 20 | 21 to 500 | 21 to 500 | 21 to 500 |
| CCCCC(F)(F)C[C@H](N[C@@H](c1ccc(F)cc1)C(F)(F)F)C(=O)NC1(C#N)CC1 | < 20 |  |  |  |
| CCC(F)(F)CC[C@H](N[C@@H](c1ccc(F)cc1)C(F)(F)F)C(=O)NC1(C#N)CC1 | < 20 |  |  |  |

Now from value to molecule:

| Ki (Human cathepsin S) [nM] | Ki (Human cathepsin F) [nM] | Ki (Human cathepsin L) [nM] | Ki (Human cathepsin B) [nM] | SMILES |
| --- | --- | --- | --- | --- |
| < 20 | 500 to 5000 | 21 to 500 | 21 to 500 | N#CC1(NC(=O)[C@H](CC(F)(F)Cc2ccccc2)N[C@@H](c2ccc(F)cc2)C(F)(F)F)CC1 |
| < 20 | > 5000 | 500 to 5000 | > 5000 | N#CC1(NC(=O)[C@H](CC(F)(F)c2ccccc2)N[C@@H](c2ccc(F)cc2)C(F)(F)F)CC1 |
| < 20 | 21 to 500 | 21 to 500 | 21 to 500 | CC(C)CC(F)(F)C[C@H](N[C@@H](c1ccc(F)cc1)C(F)(F)F)C(=O)NC1(C#N)CC1 |
